Results on two compounds are retold here after patent US7799738B2, “Insecticidal 2-acylaminothiazole-4-carboxamides” (Bayer CropScience AG, priority 2005, dated 2010).

Each structure is given as a SMILES string.

In this test the test system is Spodoptera litura. The test can be described thus: Test for embryos of Spodoptera litura (sweet potato leaf dip). It is filed as in vivo. As to conditions: effective ingredient concentration 20 ppm; 3 instar, sweet potato leaves immersed; dead counted after 7 days, 25° C. As for the experimental part: Preparation of Sample Drug Solution
1 Part by weight of the active compound was mixed with the above-mentioned amount of a solvent containing the above-mentioned amount of emulsifier in order to prepare the formulation of an appropriate active compound, and the mixture was diluted with water to a predetermined concentration.
The leaves of sweet potato were immersed in a sample drug solution which was diluted with water to a predetermined concentration and charged in a petri dish with a diameter of 9 cm after drying the drug solution. 10 of embryos with 3 instar of Spodoptera litura were dropped thereto, the petri dish was placed in a constant temperature chamber at 25° C., the leaves of sweet potato were additionally added after 2 days and 4 days and the number of dead embryos was examined after 7 days to calculate an insecticidal rate.
In the present test, the result of 2 petri dishes per one partition was averaged.

`Cc1cc(C(F)(C(F)(F)F)C(F)(F)F)cc(C)c1NC(=O)c1csc(NC(=O)c2ccccc2Cl)n1` [compound 34, 2-(2-chlorobenzoyl)amino-N-(2,6-dimethyl-4 heptafluoroisopropylphenyl)-1,3-thiazole-4-carboxamide]: the insecticidal rate worked out at 100%.

On to `Cc1cc(C(F)(C(F)(F)F)C(F)(F)F)cc(C)c1NC(=O)c1csc(NC(=O)c2cccc(Cl)c2)n1` [compound 67, 2-(3-chlorobenzoyl)amino-N-(2,6-dimethyl-4-heptafluoro-isopropylphenyl)-1,3-thiazole-4-carboxamide], for which the insecticidal rate came out at 100%.
